Reference: ChEMBL document CHEMBL5390280, “Design, Synthesis, and Biological Evaluation of an Orally Bioavailable, Potent, and Selective ROCK2 Inhibitor for Psoriasis Treatment” (J Med Chem, 2023)
In brackets after ≈: the same amount, converted by molar mass. Activity calls are given as the source filed them. The calls are words filed in the database; no cut-off is given here.

How the values were obtained:
[1] = system: Mus musculus; assay: In vivo inhibition of ROCK2 in Balb/c mouse model of IMQ-induced skin inflammation assessed as decrease in pSTAT3+ cells in dorsal skin at 20 to 80 mg/kg, po administered daily for 7 days by high power field microscopy; type: functional, organism-based; settings: dose 20-80 mg/kg, time 7.0 day
[2] = system: Mus musculus; assay: Anti-inflammatory activity in Balb/c mouse model of IMQ-induced skin inflammation assessed as decrease in IL-17A+ T cells in dorsal skin administered orally daily for 7 days by high power field microscopy; type: functional, organism-based; settings: T-cell, dose 20-80 mg/kg, route po, time 7.0 day
[3] = biological target: Rho-associated protein kinase 1 (Homo sapiens, UniProt Q13464); assay: Inhibition of ROCK1 (unknown origin) by HTRF assay
Sequence of Rho-associated protein kinase 1 (Q13464 whole entry): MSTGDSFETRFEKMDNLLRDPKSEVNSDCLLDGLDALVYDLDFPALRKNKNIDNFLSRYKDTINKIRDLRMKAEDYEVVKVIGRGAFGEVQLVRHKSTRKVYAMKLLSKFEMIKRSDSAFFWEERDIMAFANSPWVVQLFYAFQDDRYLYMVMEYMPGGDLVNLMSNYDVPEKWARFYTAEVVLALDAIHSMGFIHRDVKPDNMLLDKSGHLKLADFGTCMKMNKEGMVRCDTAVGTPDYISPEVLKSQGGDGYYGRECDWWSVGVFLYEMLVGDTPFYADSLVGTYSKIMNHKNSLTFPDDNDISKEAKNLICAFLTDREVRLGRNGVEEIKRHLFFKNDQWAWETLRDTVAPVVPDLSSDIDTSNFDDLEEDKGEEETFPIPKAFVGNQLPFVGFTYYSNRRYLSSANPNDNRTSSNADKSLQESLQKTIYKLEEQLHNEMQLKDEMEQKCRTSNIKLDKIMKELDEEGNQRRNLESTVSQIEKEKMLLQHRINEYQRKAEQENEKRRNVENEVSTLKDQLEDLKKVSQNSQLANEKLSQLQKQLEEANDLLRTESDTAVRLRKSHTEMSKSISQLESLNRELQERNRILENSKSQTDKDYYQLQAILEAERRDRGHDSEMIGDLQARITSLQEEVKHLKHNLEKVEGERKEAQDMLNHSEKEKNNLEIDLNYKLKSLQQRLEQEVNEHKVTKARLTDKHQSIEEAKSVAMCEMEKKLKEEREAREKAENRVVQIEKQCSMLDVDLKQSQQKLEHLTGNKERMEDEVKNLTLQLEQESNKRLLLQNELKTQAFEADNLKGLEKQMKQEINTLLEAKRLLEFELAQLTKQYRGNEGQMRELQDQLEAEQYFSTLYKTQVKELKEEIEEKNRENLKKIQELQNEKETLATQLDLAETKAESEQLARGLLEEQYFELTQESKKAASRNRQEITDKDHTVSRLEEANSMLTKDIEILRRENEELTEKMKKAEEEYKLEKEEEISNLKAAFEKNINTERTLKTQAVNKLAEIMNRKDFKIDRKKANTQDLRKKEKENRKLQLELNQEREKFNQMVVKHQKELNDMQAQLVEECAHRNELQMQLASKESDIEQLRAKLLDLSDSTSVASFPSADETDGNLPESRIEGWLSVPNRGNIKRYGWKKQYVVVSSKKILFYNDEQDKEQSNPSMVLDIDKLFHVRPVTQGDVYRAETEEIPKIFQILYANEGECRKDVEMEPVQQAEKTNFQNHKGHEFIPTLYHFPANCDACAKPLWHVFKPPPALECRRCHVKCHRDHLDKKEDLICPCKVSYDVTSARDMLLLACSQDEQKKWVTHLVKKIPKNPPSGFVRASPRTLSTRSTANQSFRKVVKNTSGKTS

[4] = Selectivity ratio of IC50 for ROCK1 (unknown origin) to IC50 for ROCK2 (unknown origin)
[5] = Lipophilicity, log D of the compound at pH 7.4; type: physicochemical; settings: buffer
[6] = Solubility in aqueous buffer at pH 7.4; type: physicochemical
[7] = Chemical stability of compound in PBS at pH 7.4 assessed as compound remaining measured after 10 days; type: physicochemical; settings: time 10 day, read-out: Stability
[8] = AUC (0 to infinity) in Balb/c mouse at 10 mg/kg, iv measured for 0.08 to 24 hrs by LC-MS/MS analysis; type: ADME, organism-based; design: dose 10 mg/kg, time upper 24 hrs, time lower 0.08 hrs, route iv; settings: in vivo
[9] = Clearance in Balb/c mouse at 10 mg/kg, iv measured for 0.08 to 24 hrs by LC-MS/MS analysis; type: ADME, organism-based; settings: in vivo, time 0.08-24 hrs
[10] = Volume of distribution at steady state in Balb/c mouse at 10 mg/kg, iv measured for 0.08 to 24 hrs by LC-MS/MS analysis; type: ADME, organism-based; settings: in vivo, time 0.08-24 hrs, read-out: Vdss
[11] = Half life in Balb/c mouse at 10 mg/kg, iv measured for 0.08 to 24 hrs by LC-MS/MS analysis; type: ADME, organism-based; settings: in vivo, time 0.08-24 hrs
[12] = AUC (0 to t) in Balb/c mouse at 40 mg/kg, po measured for 0.08 to 24 hrs by LC-MS/MS analysis; type: ADME, organism-based; design: time 0.08-24 hrs, dose 40 mg/kg, route po; settings: in vivo
[13] = AUC (0 to infinity) in Balb/c mouse at 40 mg/kg, po measured for 0.08 to 24 hrs by LC-MS/MS analysis; type: ADME, organism-based; design: time 0.08-24 hrs, dose 40 mg/kg, route po; settings: in vivo
[14] = Tmax in Balb/c mouse at 40 mg/kg, po measured for 0.08 to 24 hrs by LC-MS/MS analysis; type: ADME, organism-based; settings: in vivo, time 0.08-24 hrs
[15] = Oral bioavailability in Balb/c mouse at 40 mg/kg measured for 0.08 to 24 hrs by LC-MS/MS analysis; type: ADME, organism-based; settings: in vivo, time 0.08-24 hrs
[16] = system: Mus musculus; assay: Anti-inflammatory activity in Balb/c mouse model of IMQ-induced skin inflammation assessed as reduction in skin erythema at 20 to 80 mg/kg, po administered daily for 7 days; type: functional, organism-based; settings: dose 20-80 mg/kg, time 7.0 day
[17] = system: Mus musculus; assay: Anti-inflammatory activity in Balb/c mouse model of IMQ-induced skin inflammation assessed as reduction in skin roughness at 20 to 80 mg/kg, po administered daily for 7 days; type: functional, organism-based; settings: dose 20-80 mg/kg, time 7.0 day
[18] = system: Mus musculus; assay: Anti-inflammatory activity in Balb/c mouse model of IMQ-induced skin inflammation assessed as reduction in skin swelling at 20 to 80 mg/kg, po administered daily for 7 days; type: functional, organism-based; settings: dose 20-80 mg/kg, time 7.0 day
[19] = Toxicity in Balb/c mouse model of IMQ-induced skin inflammation assessed as body weight loss at 80 mg/kg, po administered daily for 7 days; type: organism-based; settings: in vivo, 168 h, time 7 day
[20] = Toxicity in Balb/c mouse model of IMQ-induced skin inflammation assessed as reduction in spleen index administered orally daily for 7 days; type: tissue-based; settings: in vivo, po, 168 h, dose 40-80 mg/kg, time 7 day
[21] = system: Mus musculus; assay: Anti-inflammatory activity in Balb/c mouse model of IMQ-induced skin inflammation assessed as decrease in Ki67+ cells in dermis of dorsal skin at 80 mg/kg, po administered daily for 7 days by IHC analysis; type: functional, organism-based; settings: time 7.0 day
[22] = system: Mus musculus; assay: Anti-inflammatory activity in Balb/c mouse model of IMQ-induced skin inflammation assessed as decrease in serum IL-17A level at 40 to 80 mg/kg, po administered daily for 7 days by IHC analysis; type: functional, organism-based; settings: dose 40-80 mg/kg, time 7.0 day
[23] = system: Mus musculus; assay: Anti-inflammatory activity in Balb/c mouse model of IMQ-induced skin inflammation assessed as decrease in serum IL-17F level at 40 mg/kg, po administered daily for 7 days by IHC analysis; type: functional, organism-based; settings: time 7.0 day
[24] = system: Mus musculus; assay: Anti-inflammatory activity in Balb/c mouse model of IMQ-induced skin inflammation assessed as decrease in IL-17A mRNA level in dorsal skin at 20 to 40 mg/kg, po administered daily for 7 days by RT-qPCR analysis; type: functional, organism-based; settings: dose 20-40 mg/kg, time 7.0 day
[25] = system: Mus musculus; assay: Anti-inflammatory activity in Balb/c mouse model of IMQ-induced skin inflammation assessed as decrease in IL-17F mRNA level in dorsal skin at 20 to 40 mg/kg, po administered daily for 7 days by RT-qPCR analysis; type: functional, organism-based; settings: dose 20-40 mg/kg, time 7.0 day
[26] = system: Mus musculus; assay: Anti-inflammatory activity in Balb/c mouse model of IMQ-induced skin inflammation assessed as decrease in IL-22 mRNA level in dorsal skin at 20 to 40 mg/kg, po administered daily for 7 days by RT-qPCR analysis; type: functional, organism-based; settings: dose 20-40 mg/kg, time 7.0 day
[27] = system: Mus musculus; assay: Anti-inflammatory activity in Balb/c mouse model of IMQ-induced skin inflammation assessed as decrease in IL-23 mRNA level in dorsal skin at 20 to 40 mg/kg, po administered daily for 7 days by RT-qPCR analysis; type: functional, organism-based; settings: dose 20-40 mg/kg, time 7.0 day
[28] = system: Mus musculus; assay: Anti-inflammatory activity in Balb/c mouse model of IMQ-induced skin inflammation assessed as decrease in IL-17F mRNA level in dorsal skin at 80 mg/kg, po administered daily for 7 days by RT-qPCR analysis; type: functional, organism-based; settings: time 7.0 day
[29] = system: Mus musculus; assay: Anti-inflammatory activity in Balb/c mouse model of IMQ-induced skin inflammation assessed as decrease in IL-22 mRNA level in dorsal skin at 80 mg/kg, po administered daily for 7 days by RT-qPCR analysis; type: functional, organism-based; settings: time 7.0 day
[30] = system: Mus musculus; assay: Anti-inflammatory activity in Balb/c mouse model of IMQ-induced skin inflammation assessed as decrease in KGF mRNA level in dorsal skin at 40 to 80 mg/kg, po administered daily for 7 days by RT-qPCR analysis; type: functional, organism-based; settings: dose 40-80 mg/kg, time 7.0 day
[31] = system: HaCaT; assay: Inhibition of KGF-induced hyperproliferation of human HaCaT cells by plate clone formation assay; type: functional, cell-based
[32] = system: HaCaT; assay: Anti-psoriasis effect in KGF-stimulated human HaCaT cells assessed as decrease in MMP-2 level at 2 to 5 uM incubated for 24 hrs by Western blot analysis; type: functional, cell-based; settings: dose 2-5 µM
[33] = system: HaCaT; assay: Anti-psoriasis effect in KGF-stimulated human HaCaT cells assessed as decrease in fibronectin level at 2 to 5 uM incubated for 24 hrs by Western blot analysis; type: functional, cell-based; settings: dose 2-5 µM
[34] = system: HaCaT; assay: Anti-psoriasis effect in KGF-stimulated human HaCaT cells assessed as decrease in N-cadherin level at 2 to 5 uM incubated for 24 hrs by Western blot analysis; type: functional, cell-based; settings: dose 2-5 µM

Cc1cc(=O)n(-c2cccc(CN[C@H]3CCC[C@H](Nc4ccc5[nH]ncc5c4)C3)c2)cc1F
Activity [1]: Active
Activity [2]: Dose-Dependent Effect
IC50 [3]: 71.2 nM
Ratio IC50 [4]: 19
logD [5]: 0.84
solubility [6]: 193 µg/mL (≈ 433 µM)
remaining at 240 h [7]: 100%
AUC(0-inf) [8]: 1060 ng·h/mL
clearance [9]: 158 mL/min/kg
Vd [10]: 8.63 L/kg
half-life [11]: 1.99 h
AUC(0-t) [12]: 300 ng·h/mL
AUC(0-inf) [13]: 302 ng·h/mL
Tmax [14]: 0.25 h
bioavailability [15]: 7.14%
Activity [16]: Active
Activity [17]: Active
Activity [18]: Active
Activity [19]: Non-Toxic
Activity [20]: Dose-Dependent Effect
Activity [21]: Active
Activity [22]: Active
Activity [23]: Active
Activity [24]: Active
Activity [25]: Active
Activity [26]: Active
Activity [27]: Active
Activity [28]: inactive
Activity [29]: Active
Activity [30]: Active
inhibition [31]: Active
Activity [32]: Active
Activity [33]: Active
Activity [34]: Active
